AC50 data for 21 compounds are collected here from ChEMBL document CHEMBL5291721, “A preclinical secondary pharmacology resource illuminates target-adverse drug reaction associations of marketed drugs” (Nat Commun, 2023).

The target in experiment [1] is T1, Muscarinic acetylcholine receptor M1 (Homo sapiens, UniProt P11229).
T1 sequence (P11229 whole entry): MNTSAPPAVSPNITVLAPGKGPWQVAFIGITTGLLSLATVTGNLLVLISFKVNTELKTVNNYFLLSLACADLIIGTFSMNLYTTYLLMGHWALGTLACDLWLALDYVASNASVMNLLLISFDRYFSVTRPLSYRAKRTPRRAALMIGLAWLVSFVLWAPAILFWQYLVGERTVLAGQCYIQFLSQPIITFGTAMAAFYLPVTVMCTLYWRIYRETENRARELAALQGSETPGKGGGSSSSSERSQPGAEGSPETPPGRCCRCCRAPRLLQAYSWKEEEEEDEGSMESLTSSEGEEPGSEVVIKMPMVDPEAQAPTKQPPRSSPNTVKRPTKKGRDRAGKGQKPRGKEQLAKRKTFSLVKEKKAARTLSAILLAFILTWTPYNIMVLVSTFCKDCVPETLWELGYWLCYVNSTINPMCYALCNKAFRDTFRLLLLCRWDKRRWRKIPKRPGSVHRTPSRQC

In experiment [2] the target is Beta-3 adrenergic receptor (Homo sapiens, UniProt P13945).
The next experiment deals with T2, B1 bradykinin receptor (Homo sapiens, UniProt P46663).
T2 sequence (P46663 whole entry): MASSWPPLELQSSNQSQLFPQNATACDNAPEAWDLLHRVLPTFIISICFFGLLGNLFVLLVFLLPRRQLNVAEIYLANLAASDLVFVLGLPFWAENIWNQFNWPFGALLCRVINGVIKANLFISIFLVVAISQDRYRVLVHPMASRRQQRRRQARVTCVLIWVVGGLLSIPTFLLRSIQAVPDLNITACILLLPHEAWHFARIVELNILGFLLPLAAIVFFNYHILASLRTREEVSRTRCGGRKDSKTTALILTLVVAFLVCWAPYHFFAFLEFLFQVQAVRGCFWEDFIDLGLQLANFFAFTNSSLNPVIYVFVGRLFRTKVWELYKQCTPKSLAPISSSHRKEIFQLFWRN

The target in experiment [3] is T3, Gastric inhibitory polypeptide receptor (Homo sapiens, UniProt P48546).
T3 sequence (P48546 whole entry): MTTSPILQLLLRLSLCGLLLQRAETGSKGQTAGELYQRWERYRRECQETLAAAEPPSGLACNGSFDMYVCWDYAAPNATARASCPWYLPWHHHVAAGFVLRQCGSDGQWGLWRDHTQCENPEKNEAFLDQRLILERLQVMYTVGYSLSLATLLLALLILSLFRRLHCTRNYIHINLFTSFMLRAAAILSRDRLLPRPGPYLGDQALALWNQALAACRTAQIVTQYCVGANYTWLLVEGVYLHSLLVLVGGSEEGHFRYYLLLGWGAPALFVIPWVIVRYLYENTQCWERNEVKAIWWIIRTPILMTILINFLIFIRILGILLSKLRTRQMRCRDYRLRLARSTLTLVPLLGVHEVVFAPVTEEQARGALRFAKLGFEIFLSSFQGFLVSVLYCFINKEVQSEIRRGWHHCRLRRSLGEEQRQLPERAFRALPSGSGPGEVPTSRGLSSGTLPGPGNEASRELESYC

Experiment [4] addresses 5-hydroxytryptamine receptor 2B (Homo sapiens, UniProt P41595).
Experiment [5] addresses 5-hydroxytryptamine receptor 7 (Homo sapiens, UniProt P34969).
In the next experiment the target is T4, Progesterone receptor (Homo sapiens, UniProt P06401).
T4 sequence (P06401 whole entry): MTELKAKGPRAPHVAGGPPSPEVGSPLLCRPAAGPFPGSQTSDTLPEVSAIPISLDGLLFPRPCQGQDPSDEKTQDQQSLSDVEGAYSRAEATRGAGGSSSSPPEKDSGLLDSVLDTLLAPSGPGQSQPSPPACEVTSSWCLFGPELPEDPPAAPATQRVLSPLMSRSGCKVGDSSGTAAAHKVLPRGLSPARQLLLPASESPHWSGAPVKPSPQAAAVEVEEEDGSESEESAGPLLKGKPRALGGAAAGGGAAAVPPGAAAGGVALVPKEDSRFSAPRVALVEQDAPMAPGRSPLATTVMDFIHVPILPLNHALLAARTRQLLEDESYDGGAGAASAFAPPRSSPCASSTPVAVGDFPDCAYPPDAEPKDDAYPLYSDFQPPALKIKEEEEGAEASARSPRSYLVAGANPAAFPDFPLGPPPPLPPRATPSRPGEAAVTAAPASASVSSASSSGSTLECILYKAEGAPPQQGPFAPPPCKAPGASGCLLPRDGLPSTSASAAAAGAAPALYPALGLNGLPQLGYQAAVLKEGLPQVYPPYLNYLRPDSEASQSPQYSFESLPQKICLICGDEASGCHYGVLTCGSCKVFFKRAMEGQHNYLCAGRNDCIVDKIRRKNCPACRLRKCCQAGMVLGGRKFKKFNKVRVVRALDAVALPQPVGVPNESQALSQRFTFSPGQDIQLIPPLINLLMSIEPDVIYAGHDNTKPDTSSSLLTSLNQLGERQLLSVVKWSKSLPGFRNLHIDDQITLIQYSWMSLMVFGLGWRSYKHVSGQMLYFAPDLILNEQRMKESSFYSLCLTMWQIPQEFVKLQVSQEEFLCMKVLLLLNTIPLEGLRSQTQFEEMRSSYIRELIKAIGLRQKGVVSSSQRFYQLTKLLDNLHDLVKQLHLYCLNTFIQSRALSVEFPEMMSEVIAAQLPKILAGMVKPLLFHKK

A further experiment concerns the target D(1A) dopamine receptor (Homo sapiens, UniProt P21728).
Experiment [6] has as its target 5-hydroxytryptamine receptor 2A (Homo sapiens, UniProt P28223).
Experiment [7] concerns the target T5, Gamma-aminobutyric acid receptor subunit alpha-1/alpha-2/beta-2/gamma-2 (Homo sapiens, UniProt P14867+P18507+P47869+P47870). It counts as functional, cell-based.
The target in experiment [8] is T5, Gamma-aminobutyric acid receptor subunit alpha-1/alpha-2/beta-2/gamma-2. It counts as functional, cell-based. The source holds these as a separate data set.
Note: assay procedure not described here.

Sequence of 5-hydroxytryptamine receptor 7 (P34969 whole entry): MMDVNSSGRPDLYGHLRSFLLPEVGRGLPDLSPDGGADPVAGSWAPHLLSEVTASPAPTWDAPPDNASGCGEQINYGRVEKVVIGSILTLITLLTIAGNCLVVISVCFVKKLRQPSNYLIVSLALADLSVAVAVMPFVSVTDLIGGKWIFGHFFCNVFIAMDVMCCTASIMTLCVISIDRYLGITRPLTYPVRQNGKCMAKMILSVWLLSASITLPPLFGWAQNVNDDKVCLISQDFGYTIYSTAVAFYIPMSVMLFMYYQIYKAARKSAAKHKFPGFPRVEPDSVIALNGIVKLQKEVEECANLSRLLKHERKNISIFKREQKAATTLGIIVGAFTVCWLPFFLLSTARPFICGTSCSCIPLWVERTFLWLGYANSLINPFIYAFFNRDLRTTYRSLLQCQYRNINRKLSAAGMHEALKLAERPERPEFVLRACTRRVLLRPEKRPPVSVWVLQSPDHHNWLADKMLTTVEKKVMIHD
Sequence of Beta-3 adrenergic receptor (P13945 whole entry): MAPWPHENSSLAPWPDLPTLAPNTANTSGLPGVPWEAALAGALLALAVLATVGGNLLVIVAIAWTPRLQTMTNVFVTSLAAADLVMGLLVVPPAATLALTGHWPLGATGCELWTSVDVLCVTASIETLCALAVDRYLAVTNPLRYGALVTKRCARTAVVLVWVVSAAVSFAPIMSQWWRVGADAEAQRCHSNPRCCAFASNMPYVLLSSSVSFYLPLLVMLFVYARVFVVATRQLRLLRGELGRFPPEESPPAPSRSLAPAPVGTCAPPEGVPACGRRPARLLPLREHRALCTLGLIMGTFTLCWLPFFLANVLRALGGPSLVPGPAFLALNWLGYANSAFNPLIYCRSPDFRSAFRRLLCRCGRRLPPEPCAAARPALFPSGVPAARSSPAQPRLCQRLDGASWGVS
Sequence of 5-hydroxytryptamine receptor 2A (P28223 whole entry): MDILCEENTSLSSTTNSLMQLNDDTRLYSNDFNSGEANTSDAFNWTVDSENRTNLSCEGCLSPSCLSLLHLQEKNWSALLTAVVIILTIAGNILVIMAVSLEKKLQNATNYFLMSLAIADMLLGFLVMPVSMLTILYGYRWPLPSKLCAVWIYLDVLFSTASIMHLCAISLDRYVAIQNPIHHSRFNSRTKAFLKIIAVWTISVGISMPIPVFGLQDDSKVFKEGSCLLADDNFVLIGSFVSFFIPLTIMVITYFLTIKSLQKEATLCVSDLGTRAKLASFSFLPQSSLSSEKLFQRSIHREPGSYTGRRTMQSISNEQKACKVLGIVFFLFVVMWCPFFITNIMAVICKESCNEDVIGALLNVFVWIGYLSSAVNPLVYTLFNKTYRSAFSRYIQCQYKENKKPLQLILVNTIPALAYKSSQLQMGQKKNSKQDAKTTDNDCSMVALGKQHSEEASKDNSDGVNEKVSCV
Sequence of 5-hydroxytryptamine receptor 2B (P41595 whole entry): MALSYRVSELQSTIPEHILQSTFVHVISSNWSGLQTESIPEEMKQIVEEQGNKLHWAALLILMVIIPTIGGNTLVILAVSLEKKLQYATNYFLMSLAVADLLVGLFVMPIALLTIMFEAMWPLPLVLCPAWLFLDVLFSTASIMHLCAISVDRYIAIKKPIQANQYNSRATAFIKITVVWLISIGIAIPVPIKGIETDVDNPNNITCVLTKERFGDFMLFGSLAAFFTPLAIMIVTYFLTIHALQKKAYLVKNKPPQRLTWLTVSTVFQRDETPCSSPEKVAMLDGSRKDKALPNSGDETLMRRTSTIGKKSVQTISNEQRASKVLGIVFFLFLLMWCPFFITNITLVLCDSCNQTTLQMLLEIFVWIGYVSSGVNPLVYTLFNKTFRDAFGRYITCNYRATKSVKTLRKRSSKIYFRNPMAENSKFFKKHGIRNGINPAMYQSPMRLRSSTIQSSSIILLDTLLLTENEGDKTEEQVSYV
Sequence of D(1A) dopamine receptor (P21728 whole entry): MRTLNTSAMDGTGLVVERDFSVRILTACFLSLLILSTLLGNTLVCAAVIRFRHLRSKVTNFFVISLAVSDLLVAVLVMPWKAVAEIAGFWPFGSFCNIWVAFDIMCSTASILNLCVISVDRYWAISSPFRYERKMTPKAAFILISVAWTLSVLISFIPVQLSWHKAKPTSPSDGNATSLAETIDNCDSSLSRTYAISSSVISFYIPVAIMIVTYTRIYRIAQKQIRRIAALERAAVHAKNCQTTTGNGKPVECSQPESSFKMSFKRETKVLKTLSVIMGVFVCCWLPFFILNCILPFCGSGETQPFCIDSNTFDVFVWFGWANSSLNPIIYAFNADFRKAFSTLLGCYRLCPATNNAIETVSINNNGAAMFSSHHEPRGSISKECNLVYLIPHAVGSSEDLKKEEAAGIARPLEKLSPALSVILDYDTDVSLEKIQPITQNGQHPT
T5 sequence (P14867 whole entry): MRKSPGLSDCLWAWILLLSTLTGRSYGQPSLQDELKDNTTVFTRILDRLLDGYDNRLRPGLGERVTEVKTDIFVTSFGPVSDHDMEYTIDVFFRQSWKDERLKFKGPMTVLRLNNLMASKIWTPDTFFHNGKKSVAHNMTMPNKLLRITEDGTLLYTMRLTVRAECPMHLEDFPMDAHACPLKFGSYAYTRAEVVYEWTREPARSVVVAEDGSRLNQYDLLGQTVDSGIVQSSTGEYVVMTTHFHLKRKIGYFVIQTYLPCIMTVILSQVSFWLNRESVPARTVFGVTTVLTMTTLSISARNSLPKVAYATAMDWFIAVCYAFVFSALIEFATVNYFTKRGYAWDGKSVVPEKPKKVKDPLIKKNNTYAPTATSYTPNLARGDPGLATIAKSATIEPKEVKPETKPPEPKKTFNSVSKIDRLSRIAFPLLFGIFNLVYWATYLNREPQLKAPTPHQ
T5 sequence (P47870 whole entry): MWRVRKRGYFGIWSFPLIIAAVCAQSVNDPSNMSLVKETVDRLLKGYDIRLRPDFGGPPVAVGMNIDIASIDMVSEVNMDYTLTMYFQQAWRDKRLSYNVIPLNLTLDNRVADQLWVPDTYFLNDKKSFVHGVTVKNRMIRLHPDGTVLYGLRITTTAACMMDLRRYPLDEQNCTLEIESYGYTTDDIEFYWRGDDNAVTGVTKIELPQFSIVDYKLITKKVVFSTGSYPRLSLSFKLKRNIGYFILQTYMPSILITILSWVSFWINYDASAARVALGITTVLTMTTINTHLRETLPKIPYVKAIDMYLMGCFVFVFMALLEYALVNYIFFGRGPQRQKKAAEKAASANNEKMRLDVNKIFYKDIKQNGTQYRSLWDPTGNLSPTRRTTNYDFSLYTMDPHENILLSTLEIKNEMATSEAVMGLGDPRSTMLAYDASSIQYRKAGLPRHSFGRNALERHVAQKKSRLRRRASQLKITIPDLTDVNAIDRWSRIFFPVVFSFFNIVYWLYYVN
T5 sequence (P18507 whole entry): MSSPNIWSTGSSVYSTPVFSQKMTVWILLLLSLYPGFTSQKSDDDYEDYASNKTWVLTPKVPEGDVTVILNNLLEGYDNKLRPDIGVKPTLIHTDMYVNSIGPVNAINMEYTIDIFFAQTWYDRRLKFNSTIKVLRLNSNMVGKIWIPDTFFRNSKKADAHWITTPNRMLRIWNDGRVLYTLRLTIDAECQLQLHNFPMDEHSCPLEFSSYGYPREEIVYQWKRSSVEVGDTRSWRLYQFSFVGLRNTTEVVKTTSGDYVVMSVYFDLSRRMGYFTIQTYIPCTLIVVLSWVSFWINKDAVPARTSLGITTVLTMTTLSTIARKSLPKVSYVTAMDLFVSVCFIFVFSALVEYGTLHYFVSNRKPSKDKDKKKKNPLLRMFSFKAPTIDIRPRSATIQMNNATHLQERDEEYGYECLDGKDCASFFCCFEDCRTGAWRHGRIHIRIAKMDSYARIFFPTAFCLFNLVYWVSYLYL
T5 sequence (P47869 whole entry): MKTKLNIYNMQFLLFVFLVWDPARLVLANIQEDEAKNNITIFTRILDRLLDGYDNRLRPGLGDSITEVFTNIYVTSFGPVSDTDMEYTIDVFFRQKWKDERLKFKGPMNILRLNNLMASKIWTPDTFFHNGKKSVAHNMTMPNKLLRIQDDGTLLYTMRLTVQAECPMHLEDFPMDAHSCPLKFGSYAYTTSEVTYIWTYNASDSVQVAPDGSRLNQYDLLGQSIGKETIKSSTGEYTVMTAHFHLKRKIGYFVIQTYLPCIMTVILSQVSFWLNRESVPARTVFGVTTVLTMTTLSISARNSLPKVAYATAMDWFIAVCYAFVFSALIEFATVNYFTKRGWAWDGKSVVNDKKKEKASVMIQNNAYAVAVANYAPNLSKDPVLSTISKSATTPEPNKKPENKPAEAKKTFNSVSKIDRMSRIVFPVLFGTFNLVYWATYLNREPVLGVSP

One may read the AC50 as the midpoint of the concentration-response curve, whichever way the signal moves. A higher AC50 goes with activity only at high concentration. `NC(=O)c1cccc2cn(-c3ccc([C@@H]4CCCNC4)cc3)nc12` [NIRAPARIB] gave an AC50 in [1] of 15.3 µM.

Regarding `O=C(Nc1ccccc1)OCC(CN1CCCCC1)OC(=O)Nc1ccccc1` (stereo unspecified) [DIPERODON], the AC50 in experiment [2] was > 30 µM; at B1 bradykinin receptor, > 30 µM; in experiment [3] it was > 30 µM; in experiment [4], 1.96 µM; in experiment [5] it was > 10 µM; at Progesterone receptor, > 30 µM. Further, the AC50 (on D(1A) dopamine receptor; in experiment [6]) was > 10 µM throughout.

With `CCCC(=O)N1CCCN(c2nc(N)c3cc(OC)c(OC)cc3n2)CC1` [BUNAZOSIN], the AC50 in [7] and in experiment [8] was > 30 µM throughout.

For `NS(=O)(=O)c1cc2c(cc1Cl)NC(CC1CCCC1)NS2(=O)=O` (stereo unspecified) [CYCLOPENTHIAZIDE], the AC50 in [1], in [7] and in [8] was > 30 µM in each case.

In the case of `CC(=O)N(CC(O)CO)c1c(I)c(C(=O)NCC(O)CO)c(I)c(C(=O)NCC(O)CO)c1I` (stereo unspecified) [IOHEXOL], the AC50 on Progesterone receptor was > 30 µM; in experiment [6] it was > 10 µM.

Take `CC(C)(N)Cc1ccc(Cl)cc1` [CHLORPHENTERMINE]: the AC50 in experiment [2] is > 30 µM; on B1 bradykinin receptor, > 30 µM; in experiment [3], > 30 µM; in experiment [4] it was 3 µM; on Progesterone receptor, > 30 µM; on D(1A) dopamine receptor it was > 10 µM. The compound further registered an AC50 in experiment [6] of 9.06 µM.

Consider `O=C1CCC(N2C(=O)c3ccccc3C2=O)C(=O)N1` (stereo unspecified) [THALIDOMIDE], for which the AC50 was > 30 µM in experiment [2]; > 30 µM at B1 bradykinin receptor; > 30 µM in experiment [3]; > 10 µM in [4]; > 30 µM at Progesterone receptor; > 10 µM on D(1A) dopamine receptor.

Take `Nc1nc(-n2cc(C(=O)O)c(=O)c3cc(F)c(N4CC(O)C4)c(Cl)c32)c(F)cc1F` [DELAFLOXACIN]: in experiment [1], the AC50 was > 30 µM.

Regarding `C=C1C[C@@H]2[C@H](CC[C@]3(C)C(=O)CC[C@@H]23)[C@@]2(C)C=CC(=O)C=C12` [EXEMESTANE], the concentration at half-maximal activity (AC50) was > 30 µM in experiment [2]; > 30 µM at B1 bradykinin receptor; > 30 µM in [3]; 29.3 µM at Progesterone receptor; 6.96 µM in [6].

Regarding `Nc1ccc(/N=N/c2ccccc2)c(N)n1` [PHENAZOPYRIDINE], the half-maximal activity concentration (AC50) in experiment [1], in experiment [7] and in [8] was > 30 µM throughout.

In the case of `O=C(O)CCn1c2c(c3ccccc31)C[C@H](NS(=O)(=O)c1ccc(F)cc1)CC2` [RAMATROBAN], the AC50 on B1 bradykinin receptor is > 10 µM; at D(1A) dopamine receptor, 6.01 µM.

Take `CO/N=C(\C(=O)N[C@@H]1C(=O)N2C(C(=O)OCOC(=O)C(C)(C)C)=C(C)CS[C@H]12)c1csc(N)n1`: the AC50 in experiment [1], in experiment [7] and in experiment [8] was > 30 µM throughout.

With `COCC1=C(C(=O)OC(C)OC(=O)OC(C)C)N2C(=O)[C@@H](NC(=O)/C(=N\OC)c3csc(N)n3)[C@H]2SC1` (stereo partly specified) [CEFPODOXIME PROXETIL], the concentration at half-maximal activity (AC50) in experiment [1], in experiment [7] and in [8] was > 30 µM each time.

On to `CN1C(=O)N(C)C2C1N(C)C(=O)N2C` (stereo unspecified) [MEBICAR], for which the AC50 in experiment [1], in experiment [7] and in [8] was > 30 µM each time.

Consider `O=C(Cn1ccnc1[N+](=O)[O-])NCc1ccccc1` [BENZNIDAZOLE], for which the AC50 in experiment [1] is > 30 µM.

Take `CN(C)CCCN1c2ccccc2Sc2ccccc21` [PROMAZINE]: the AC50 in experiment [2] is > 30 µM; on B1 bradykinin receptor it was > 30 µM; in experiment [3], > 30 µM; in [4] it was 0.192 µM; in experiment [5] it was 2.16 µM; at Progesterone receptor, > 30 µM. On D(1A) dopamine receptor, half-maximal activity (AC50) was put at 1.08 µM.

For the compound `N/N=c1/cc2c(n[nH]1)CCN(C(=O)c1ccccc1)C2` [ENDRALAZINE], the AC50 in experiment [1], in experiment [7] and in [8] was > 30 µM in each case.

For `O=P(O)(O)C(O)(Cc1cccnc1)P(=O)(O)O` [RISEDRONIC ACID], the AC50 in [2] was > 30 µM; at B1 bradykinin receptor it was > 30 µM; in experiment [3], > 30 µM; in experiment [4], > 10 µM; in experiment [5], > 10 µM; at Progesterone receptor, > 30 µM. The AC50 on D(1A) dopamine receptor is > 10 µM.

In the case of `O=C(O)c1cccc(-c2noc(-c3ccccc3F)n2)c1`, the AC50 is > 30 µM on Progesterone receptor and > 10 µM in experiment [6].

As for `CC(C)=CCC1C(=O)N(c2ccccc2)N(c2ccccc2)C1=O` [FEPRAZONE], the AC50 in experiment [1] is > 30 µM.

In the case of `C[N+](C)(C)CCOC(N)=O` [CARBAMOYLCHOLINE], in experiment [7], the AC50 is > 30 µM.
